We go through 28 compounds from patent publication US9718809B2, “Bisarylsulfonamides useful in the treatment of inflammation and cancer” (Kancera AB, priority 2011, dated 2017).

Broadly, the IC50 is the concentration at which inhibition is half-maximal.

Structures can show the parent of a compound that is named as a salt.

The first assay relates to F-2,6-P2 in PANC-1 cells. Put plainly: Quantification of F-2,6-P2 (Van Schaftingen coupled enzyme assay) in PANC-1 cells. The format is cell-based, human. Particulars: Homo sapiens; PANC-1 cells; read-out: IC50 based on quantification of F-2,6-P2. From the text:
A method for quantification of F-2,6-P2 has been described by Van Schaftingen et al. (1982) Eur. J. Biochem. 129, 191-5. This sensitive assay is based on the potent activation of pyrophosphate dependent phosphofructokinase-1 (PPi-PFK) from potato tubers by F-2,6-P2. The use of a series of coupled enzymes leads to a consumption of NADH (nicotinamide adenine dinucleotide) that can be followed spectrophotometrically (an updated protocol is available in Van Schaftingen, (1984) Methods of Enzymatic Analysis (Bergmeyer, H. U., ed.), 3rd edn., vol. 6, pp. 335-341, Verlag Chemie, Weinheim). A protocol for measurements in 96-well microtiter plate format is also available (Bruni et al., (1989) Anal. Biochem. 178, 324-6).
The levels of F-2,6-P2 have been determined using the van Shaftingen assay as described in the protocol below, in six different cancer cell lines endogenously expressing varying levels of the different isoforms of PFK-2/BPase-2 (MCF-7, PANC-1, NUGC-3, SW480, SW620 and MIA PaCa-2). All reagents were purchased from commercial sources or prepared in-house.
Cell line B (PANC-1, human pancreatic carcinoma cell line): PANC-1 cells (ATCC-CRL-1469), lot. no. 58564651. Cells were seeded at a concentration of ˜250 000 cells/mL in 100 μL growth medium (˜25 000 cells/well).
Growth medium (cell lines B-F): Dulbecco's Modified Eagle's Medium, DMEM, VWR, LONZ12-604F; 10% FBS, Invitrogen, 10270-106.
Starvation medium (cell lines A-F): DMEM/F12 without phenol red and glucose free, SVA, 991373; 0.25% FBS, Invitrogen, 10270-106.
Induction medium (cell lines A-F): DMEM/F12 without phenol red and glucose free, SVA, 991373; 0.25% FBS, Invitrogen, 10270-106 (same as starvation medium).
Cells were seeded in 96-well Corning Costar tissue culture plates (CLS3595, Sigma-Aldrich) using the concentrations specified above for the different cell lines A-F and incubated over night at 37° C. and 5% CO2. Row A in the plate was left empty and the cell lines added to rows B-H. Next day the growth medium was discarded and replaced with 100 μL starvation medium. The plates were incubated for 18 h at 37° C. and 5% CO2. After 18 h of starvation the cells were induced with 100 μL compound or control solutions. Compounds were either tested in two concentrations (50 μM and 10 μM) or in dose response curves starting from 50 μM. The final DMSO concentration in assay plates was 0.5%. Also a dose response curve of a reference inhibitor was included in row H on each plate. All compounds were tested in duplicate plates. Compounds (in 96 well CLS 3365, Sigma-Aldrich plates) were serial diluted in DMSO from 10 mM compound DMSO stock solutions with Janus (automated liquid handling workstation from PerkinElmer). Five μL were transferred to a Greiner deep well plate (736-0155, VWR) with 495 μL starvation medium. The final start concentration of compounds in the dilution plate was 100 μM, 1% DMSO. For compounds tested as single points, 10 mM compound solutions were diluted five fold in DMSO to 2 mM, followed by the transfer of 5 μL to separate dilution plates with 495 μL starvation medium. The final concentrations of compounds in these dilution plates were 100 or 20 μM, respectively, and final concentration of DMSO was 1%. The plates were incubated at 37° C. and 5% CO2 for 1 h, followed by the addition of 10 μL 20 mM D-glucose in starvation medium. Controls, with and without 1 mM glucose, were included in row B. The final assay volume was 210 μL per well. After 2 h of incubation at 37° C. and 5% CO2, the supernatants were discarded and the cells lysed by the addition of 25 μL 250 mM NaOH. The plates were incubated at 37° C. and 5% CO2 for 5 min followed by an addition of 75 μL MilliQ dH2O. The supernatants were further diluted with 210 μL MilliQ dH2O to a final concentration of 20 mM NaOH. 200 μL were transferred to NUNC 96-well plates (7322661, VWR) and the plates were sealed and stored at −20° C. until analysis. […]
For `Cc1cc(NCCCOC(=O)c2ccc(NS(=O)(=O)c3cccc(-c4cc(F)ccc4O)c3)cc2O)no1` [Example 232, 3-[(5-Methylisoxazol-3-yl)amino]propyl 4-{[(5′-fluoro-2′-hydroxybiphenyl-3-yl)sulfonyl]amino}-2-hydroxybenzoate trifluoroacetate], the IC50 amounted to 800 nM.

Consider `CCOCCOC(=O)c1ccc(NS(=O)(=O)c2cc(Cl)sc2Cl)cc1O` [Example 66, 2-Ethoxyethyl 4-{[(2,5-dichloro-3-thienyl)sulfonyl]amino}-2-hydroxybenzoate], for which the IC50 came to 5700 nM.

Regarding `COC(=O)c1ccc(NS(=O)(=O)c2ccc(F)c(Cl)c2)cc1O` [Example 32, Methyl 4-{[(3-chloro-4-fluorophenyl)sulfonyl]amino}-2-hydroxybenzoate], the IC50 worked out at 4800 nM.

For `COC(=O)c1ccc(NS(=O)(=O)c2cnc(Cl)c(-c3ccc4c(c3)CCO4)c2)cc1O` [Example 155, Methyl 4-({[6-chloro-5-(2,3-dihydro-1-benzofuran-5-yl)pyridin-3-yl]sulfonyl}amino)-2-hydroxybenzoate], the IC50 is 4900 nM.

Regarding `COC(=O)c1ccc(NS(=O)(=O)c2cc(-c3cccc(C(=O)N(C)C)c3)c(Cl)s2)cc1O` [Example 143, Methyl 4-[({5-chloro-4-[3-(dimethylcarbamoyl)phenyl]thiophen-2-yl}sulfonyl)amino]-2-hydroxybenzoate], the IC50 was found to be 2400 nM.

Consider `COC(=O)c1ccc(NS(=O)(=O)c2scc(Br)c2Br)cc1O` [Example 57, Methyl 4-{[(3,4-dibromothiophen-2-yl)sulfonyl]amino}-2-hydroxybenzoate], for which the IC50 was found to be 5700 nM.

As to `COC(=O)c1ccc(NS(=O)(=O)c2cc3ccccc3o2)cc1O` [Example 9, Methyl 4-[(1-benzofuran-2-ylsulfonyl)amino]-2-hydroxybenzoate], the IC50 is 19600 nM.

Regarding `COC(=O)c1ccc(NS(=O)(=O)c2cccc(-c3cccc(C(N)=O)c3)c2)cc1O` [Example 113, Methyl 4-{[(3′-carbamoylbiphenyl-3-yl)sulfonyl]amino}-2-hydroxybenzoate], the IC50 came to 5400 nM.

Regarding `COCCOC(=O)c1ccc(NS(=O)(=O)c2c(Cl)sc(Cl)c2Br)cc1O` [Example 197, 2-Methoxyethyl 4-{[(4-bromo-2,5-dichlorothiophen-3-yl)sulfonyl]amino}-2-hydroxybenzoate], the IC50 worked out at 3500 nM.

With `COC(=O)c1ccc(NS(=O)(=O)c2cccc(-c3ccc(C(C)=O)s3)c2)cc1O` [Example 95, Methyl 4-({[3-(5-acetyl-2-thienyl)phenyl]sulfonyl}amino)-2-hydroxybenzoate], the 50% inhibitory concentration (IC50) amounted to 1700 nM.

Take `COC(=O)c1ccc(NS(=O)(=O)c2cccc(-c3ccccc3)c2)cc1O` [Example 87, Methyl 4-[(biphenyl-3-ylsulfonyl)amino]-2-hydroxybenzoate]: the IC50 was 1600 nM.

As for `O=C(OCc1ccccc1)c1ccc(NS(=O)(=O)c2cc(Cl)c(Cl)s2)cc1O` [Example 71, Benzyl 4-{[(4,5-dichloro-2-thienyl)sulfonyl]amino}-2-hydroxybenzoate], the IC50 came to 800 nM.

With `COC(=O)c1ccc(NS(=O)(=O)Cc2ccc(-c3ccccc3O)cc2)cc1O` [Example 126, Methyl 2-hydroxy-4-({[(2′-hydroxybiphenyl-4-yl)methyl]sulfonyl}amino)benzoate], the IC50 was 1400 nM.

For the compound `COCCOC(=O)c1ccc(NS(=O)(=O)c2cccc(-c3ccc4c(c3)CCO4)c2)cc1O` [Example 175, 2-Methoxyethyl 4-({[3-(2,3-dihydro-1-benzofuran-5-yl)phenyl]sulfonyl}amino)-2-hydroxybenzoate], the IC50 stood at 700 nM.

Turning to `COC(=O)c1ccc(NS(=O)(=O)c2cc(C(F)(F)F)oc2C)cc1O` [Example 10, Methyl 2-hydroxy-4-({[2-methyl-5-(trifluoromethyl)furan-3-yl]sulfonyl}amino)benzoate], the IC50 is 6700 nM.

On to `O=C(OCCO)c1ccc(NS(=O)(=O)c2cc(-c3ccccc3)c(Cl)s2)cc1O` [Example 217, 2-Hydroxyethyl 4-{[(5-chloro-4-phenyl-2-thienyl)sulfonyl]amino}-2-hydroxybenzoate], for which the IC50 came to 1400 nM.

As for `COC(=O)c1ccc(NS(=O)(=O)c2cccc(-c3ccc(OC(F)(F)F)cc3)c2)cc1O` [Example 99, Methyl 2-hydroxy-4-({[4′-(trifluoromethoxy)biphenyl-3-yl]sulfonyl}amino)benzoate], the half-maximal inhibitory concentration (IC50) was found to be 2400 nM.

Regarding `COC(=O)c1ccc(NS(=O)(=O)c2cc(Cl)c(-c3ccccc3O)s2)cc1O` [Example 206, Methyl 4-({[4-chloro-5-(2-hydroxyphenyl)thiophen-2-yl]sulfonyl}amino)-2-hydroxybenzoate], the IC50 came to 8900 nM.

The same assay, now with this note: at 12.5-50 μM in PANC-1 cells.
On to `COC(=O)c1ccc(NS(=O)(=O)c2c(C)cccc2Cl)cc1O` [Example 43, Methyl 4-{[(2-chloro-6-methylphenyl)sulfonyl]amino}-2-hydroxybenzoate], for which the “inhibition (F-2,6-P2 levels)” value was ≥ 50%.

Regarding `CC(=O)Oc1cc(NS(=O)(=O)c2cccc3ccccc23)ccc1C(=O)OCc1ccccc1` [Example 140, Benzyl 2-acetoxy-4-[(1-naphthylsulfonyl)amino]benzoate], the “inhibition (F-2,6-P2 levels)” value is listed as ≥ 50%.

On to `O=C(O)C(F)(F)F.O=C(OCCCn1ccnc1)c1ccc(NS(=O)(=O)c2cc(Cl)c(Cl)s2)cc1O` [Example 64, 3-(1H-Imidazol-1-yl)propyl 4-{[(4,5-dichlorothiophen-2-yl)sulfonyl]amino}-2-hydroxybenzoate trifluoroacetate], for which the “inhibition (F-2,6-P2 levels)” value is recorded as ≥ 50%.

Take `COC(=O)c1ccc(NS(=O)(=O)c2ccc(C(C)(C)C)cc2)cc1O` [Example 36, Methyl 4-{[(4-tert-butylphenyl)sulfonyl]amino}-2-hydroxybenzoate]: the “inhibition (F-2,6-P2 levels)” value is ≥ 50%.

`COC(=O)c1ccc(NS(=O)(=O)c2cccc(-c3ccc(SC)cc3)c2)cc1O` [Example 98, Methyl 2-hydroxy-4-({[4′-(methylsulfanyl)biphenyl-3-yl]sulfonyl}amino)benzoate]: the “inhibition (F-2,6-P2 levels)” value is ≥ 50%.

Take `COC(=O)c1ccc(NS(=O)(=O)c2cnc(Cl)c(-c3cccc(F)c3)c2)cc1O` [Example 83, Methyl 4-({[6-chloro-5-(3-fluorophenyl)pyridin-3-yl]sulfonyl}amino)-2-hydroxybenzoate]: the “inhibition (F-2,6-P2 levels)” value is listed as ≥ 50%.

Turning to `COC(=O)c1ccc(NS(=O)(=O)c2cccc(OC)c2)cc1O` [Example 121, Methyl 2-hydroxy-4-{[(3-methoxyphenyl)sulfonyl]amino}benzoate], the “inhibition (F-2,6-P2 levels)” value was ≥ 50%.

Consider `COC(=O)c1cccc(-c2cc(S(=O)(=O)Nc3ccc(C(=O)OC)c(O)c3)sc2Cl)c1` [Example 77, Methyl 4-[({5-chloro-4-[3-(methoxycarbonyl)phenyl]thiophen-2-yl}sulfonyl)amino]-2-hydroxybenzoate], for which the “inhibition (F-2,6-P2 levels)” value was ≥ 50%.

`O=C(Oc1ccccc1)c1ccc(NS(=O)(=O)c2cc(Cl)c(Cl)s2)cc1O` [Example 73, Phenyl 4-{[(4,5-dichloro-2-thienyl)sulfonyl]amino}-2-hydroxybenzoate]: the “inhibition (F-2,6-P2 levels)” value is recorded as ≥ 50%.

Consider `COC(=O)c1ccc(NS(=O)(=O)c2ccc(Cl)cc2)cc1O` [Example 42, Methyl 4-{[(4-chlorophenyl)sulfonyl]amino}-2-hydroxybenzoate], for which the “inhibition (F-2,6-P2 levels)” value is recorded as ≥ 50%.
